Numbers after ± are expanded uncertainties.
Experiment: xn = mol fraction of the nth substance listed
Details: 101 kPa, Liquid; for viscosity: Concentric cylinders viscometry; for mass density: Vibrating tube method

CCCCOC(=O)C(C)O (stereo not given) [butyl 2-hydroxypropanoate] + OCCCO
viscosity (288.15 K, x1 = 0.0999): 55.22 ± 0.56 mPa·s
viscosity (288.15 K, x1 = 0.2): 41.92 ± 0.46 mPa·s
viscosity (288.15 K, x1 = 0.3001): 31.27 ± 0.37 mPa·s
viscosity (288.15 K, x1 = 0.4): 22.91 ± 0.28 mPa·s
viscosity (288.15 K, x1 = 0.4999): 16.95 ± 0.22 mPa·s
viscosity (288.15 K, x1 = 0.5999): 12.66 ± 0.18 mPa·s
viscosity (288.15 K, x1 = 0.6996): 9.596 ± 0.14 mPa·s
viscosity (288.15 K, x1 = 0.8001): 7.373 ± 0.12 mPa·s
viscosity (288.15 K, x1 = 0.9): 5.629 ± 0.093 mPa·s
viscosity (288.15 K, x1 = 1): 4.628 ± 0.081 mPa·s
mass density (288.15 K, x1 = 0.0999): 1046.52 ± 0.36 kg/m3
mass density (288.15 K, x1 = 0.2): 1037.84 ± 0.47 kg/m3
mass density (288.15 K, x1 = 0.3001): 1029.39 ± 0.59 kg/m3
mass density (288.15 K, x1 = 0.4): 1022.24 ± 0.72 kg/m3
mass density (288.15 K, x1 = 0.4999): 1015.45 ± 0.87 kg/m3
mass density (288.15 K, x1 = 0.5999): 1009.2 ± 1 kg/m3
mass density (288.15 K, x1 = 0.6996): 1003.51 ± 1.2 kg/m3
mass density (288.15 K, x1 = 0.8001): 997.914 ± 1.4 kg/m3
mass density (288.15 K, x1 = 0.9): 992.76 ± 1.6 kg/m3
mass density (288.15 K, x1 = 1): 987.269 ± 1.8 kg/m3
viscosity (293.15 K, x1 = 0.0999): 42.99 ± 0.45 mPa·s
viscosity (293.15 K, x1 = 0.2): 32.73 ± 0.36 mPa·s
viscosity (293.15 K, x1 = 0.3001): 24.47 ± 0.29 mPa·s
viscosity (293.15 K, x1 = 0.4): 18.13 ± 0.23 mPa·s
viscosity (293.15 K, x1 = 0.4999): 13.54 ± 0.18 mPa·s
viscosity (293.15 K, x1 = 0.5999): 10.21 ± 0.14 mPa·s
viscosity (293.15 K, x1 = 0.6996): 7.805 ± 0.12 mPa·s
viscosity (293.15 K, x1 = 0.8001): 6.064 ± 0.095 mPa·s
viscosity (293.15 K, x1 = 0.9): 4.686 ± 0.077 mPa·s
viscosity (293.15 K, x1 = 1): 3.88 ± 0.068 mPa·s
mass density (293.15 K, x1 = 0.0999): 1043.16 ± 0.36 kg/m3
mass density (293.15 K, x1 = 0.2): 1034.24 ± 0.46 kg/m3
mass density (293.15 K, x1 = 0.3001): 1025.58 ± 0.58 kg/m3
mass density (293.15 K, x1 = 0.4): 1018.23 ± 0.71 kg/m3
mass density (293.15 K, x1 = 0.4999): 1011.25 ± 0.86 kg/m3
mass density (293.15 K, x1 = 0.5999): 1004.84 ± 1 kg/m3
mass density (293.15 K, x1 = 0.6996): 999.008 ± 1.2 kg/m3
mass density (293.15 K, x1 = 0.8001): 993.26 ± 1.4 kg/m3
mass density (293.15 K, x1 = 0.9): 987.976 ± 1.6 kg/m3
mass density (293.15 K, x1 = 1): 982.366 ± 1.8 kg/m3
viscosity (298.15 K, x1 = 0.0999): 33.94 ± 0.35 mPa·s
viscosity (298.15 K, x1 = 0.2): 25.91 ± 0.29 mPa·s
viscosity (298.15 K, x1 = 0.3001): 19.59 ± 0.23 mPa·s
viscosity (298.15 K, x1 = 0.4): 14.51 ± 0.18 mPa·s
viscosity (298.15 K, x1 = 0.4999): 10.96 ± 0.14 mPa·s
viscosity (298.15 K, x1 = 0.5999): 8.355 ± 0.12 mPa·s
viscosity (298.15 K, x1 = 0.6996): 6.444 ± 0.096 mPa·s
viscosity (298.15 K, x1 = 0.8001): 5.056 ± 0.079 mPa·s
viscosity (298.15 K, x1 = 0.9): 3.957 ± 0.066 mPa·s
viscosity (298.15 K, x1 = 1): 3.307 ± 0.058 mPa·s
mass density (298.15 K, x1 = 0.0999): 1039.79 ± 0.36 kg/m3
mass density (298.15 K, x1 = 0.2): 1030.62 ± 0.46 kg/m3
mass density (298.15 K, x1 = 0.3001): 1021.73 ± 0.57 kg/m3
mass density (298.15 K, x1 = 0.4): 1014.19 ± 0.71 kg/m3
mass density (298.15 K, x1 = 0.4999): 1007.03 ± 0.85 kg/m3
mass density (298.15 K, x1 = 0.5999): 1000.47 ± 1 kg/m3
mass density (298.15 K, x1 = 0.6996): 994.488 ± 1.2 kg/m3
mass density (298.15 K, x1 = 0.8001): 988.587 ± 1.4 kg/m3
mass density (298.15 K, x1 = 0.9): 983.173 ± 1.6 kg/m3
mass density (298.15 K, x1 = 1): 977.448 ± 1.8 kg/m3
viscosity (303.15 K, x1 = 0.0999): 27.14 ± 0.28 mPa·s
viscosity (303.15 K, x1 = 0.2): 20.8 ± 0.23 mPa·s
viscosity (303.15 K, x1 = 0.3001): 15.82 ± 0.19 mPa·s
viscosity (303.15 K, x1 = 0.4): 11.86 ± 0.15 mPa·s
viscosity (303.15 K, x1 = 0.4999): 8.984 ± 0.12 mPa·s
viscosity (303.15 K, x1 = 0.5999): 6.919 ± 0.097 mPa·s
viscosity (303.15 K, x1 = 0.6996): 5.405 ± 0.08 mPa·s
viscosity (303.15 K, x1 = 0.8001): 4.286 ± 0.067 mPa·s
viscosity (303.15 K, x1 = 0.9): 3.386 ± 0.056 mPa·s
viscosity (303.15 K, x1 = 1): 2.86 ± 0.05 mPa·s
mass density (303.15 K, x1 = 0.0999): 1036.41 ± 0.35 kg/m3
mass density (303.15 K, x1 = 0.2): 1026.99 ± 0.45 kg/m3
mass density (303.15 K, x1 = 0.3001): 1017.87 ± 0.57 kg/m3
mass density (303.15 K, x1 = 0.4): 1010.14 ± 0.7 kg/m3
mass density (303.15 K, x1 = 0.4999): 1002.79 ± 0.84 kg/m3
mass density (303.15 K, x1 = 0.5999): 996.07 ± 1 kg/m3
mass density (303.15 K, x1 = 0.6996): 989.946 ± 1.2 kg/m3
mass density (303.15 K, x1 = 0.8001): 983.896 ± 1.4 kg/m3
mass density (303.15 K, x1 = 0.9): 978.359 ± 1.6 kg/m3
mass density (303.15 K, x1 = 1): 972.515 ± 1.8 kg/m3
